In series [1] the test system is p65/RelA activation and phosphorylation of NEMO. Description: Western blot for canonical NF-κB activation. It counts as cell-based. The conditions noted are these: single agent, Western blot. The text has this:
(§1) The cells were lysed to prepare protein extracts.
Background: Immunoblotting shows a protein as a band on a membrane.

The test system of series [2] is RENCA renal cancer tumors. Description: RENCA cell-derived syngeneic kidney cancer tumor model. The conditions noted are these: throughout the experiment.
Method: The subcutaneous tumor bearing mice were treated with indicated agents. […] The end-points for assessing anti-tumor activity involved qualitative determination via tumor growth inhibition (% T/C) where T is the median tumor volume of the treated mice and C is the median tumor volume of the Control mice on any given day of measurement.
The test system of a further series is MDR1. The series can be described thus: Levels of drug efflux pump MDR1. Format: cell-based, human. Conditions: MDA-MB-468 cells. The text has this: Of note is that SNI-1 in combination with Adriamycin provoked a greater inhibition of tumor growth when compared with the tumor growth inhibition noted in animals treated with either agent alone. […] Since TNBCs and many other cancers are often known to express drug efflux pumps that contribute to lower efficacy of drugs in clinic and development of drug-resistant tumors, it is likely that the presence/expression of these drug efflux pumps function in part to interfere with a robust anti-tumor response to a combination of SNI-1 and Adriamycin.

Series [3] deals with parental and chemo-resistant human and murine TNBC cells and parental renal cancer cells. Description: Cytokine ELISA of culture media, chemotherapy-induced secretion. Format: cell-based. The conditions noted are these: single agent. On the technique in general: ELISA stands for enzyme-linked immunosorbent assay.
For another series, the system named is 4T1 TNBC tumors. The series can be described thus: 4T1 TNBC syngeneic tumor efficacy study in Balb/c mice. It counts as in vivo, mouse. Conditions: for serum levels of TNFα and IL-1β: ELISA of sera. As to the method: Establishment of TNBC cell-derived xenografts in Syngeneic mice: Generation of 4T1 TNBC cell-derived sub-cutaneous xenografts in Balb/c mice were performed (Cheriyan et al. (2016) Oncotarget 7, 73370-73388; and Cheriyan et al. (2017) Oncotarget 8, 104928-104945). BALB/cAnNCr, 6-8-weeks old, female mice were purchased from Charles River Laboratories (Horsham, Pa.). Following suitable acclimation of animals, 1×10^6 4T1 TNBC cells were re-suspended in 200 μl of sterile saline, and implanted in the flanks using a 27-gauge needle. Tumors were allowed to grow to 500-1000 mg (˜10 days), and the aseptically harvested, minced into 3-4 mm^3 (30 mg) fragments and transplanted SC into naïve recipient mice using a standard 12 gauge trocar to serially maintain the tumor in vivo. For efficacy studies, tumors serially maintained in vivo were aseptically harvested and minced into 3-4 mm^3 (30 mg) fragments, then bilaterally transplanted subcutaneously along the flanks using a standard 12 gauge trocar. […] For the efficacy studies, SNI-1 was formulated in 8% DMSO (v/v) and 8% Cremophor (v/v) in cell grade water, pH4 as diluent.
Clinical grade ADR stock (2 mg/mL) was diluted to the appropriate concentration with cell grade water; pH4 and clinical grade CIS (1 mg/ml) diluted with USP 0.9% saline; pH6). Mice were monitored daily for changes in condition and body weight. Tumors were measured three times weekly by caliper and tumor volume (mg) was calculated using the following formula: (A×B2)/2 where A and B are the tumor length and width (in mm), respectively. […] Efficacy was also assessed quantitatively using tumor growth delay (T−C) defined as the difference between the median time (in days) required for the treatment group tumors (T) to reach 1000 mg and the median time (days) for the control group tumors to reach the same volume. Post last treatment, tumor tissue and samples from various organs (spleen, liver, kidney, heart, bone, and lungs) were collected. Additionally, the whole blood samples were obtained from a representative tumor-bearing mouse from each group via terminal cardiac puncture. Immuno-histochemical analyses of the tumor and tissue samples were performed for expression of activated RelA (serine 536 phosphorylated p65), total RelA, cleaved caspase-3, and CARP-1 proteins. The levels of pro-inflammatory cytokines in the sera were analyzed by sandwich ELISA assays following methods detailed herein (Cheriyan et al. (2016) Oncotarget 7, 73370-73388; and Cheriyan et al. (2017) Oncotarget 8, 104928-104945).

The subject of a further series is MDA-MB-231 TNBC cells. The conditions noted are these: Wen et al. (2018); read-out: IC50, growth inhibition; cited from earlier work.
The next series deals with cleaved RIPK1. The series can be described thus: Western blot for RIPK1 cleavage. It counts as cell-based.
Excerpt: as §1

The test system of series [4] is mammospheres derived from human TNBC PDX tumors. Description: Three-dimensional mammosphere assay (MTT). The conditions noted are these: Homo sapiens; 5 μM for 48 h. Format: cell-based.
Method: Three-dimensional Mammosphere Assays: The PDX tumor cells were dissociated from the tumor fragments, and cultured for 2-dimensional and mammosphere studies in vitro (Cheriyan et al. (2016) Oncotarget 7, 73370-73388). Briefly, the cells were washed twice in 1×PBS, trypsinized, and pelleted at 200×g at room temperature. Cells were then re-suspended in 5 ml of mammosphere media (DMEM/F12 containing 2 mM L-glutamine, 100 U/ml penicillin, 100 U/ml streptomycin, 1×B27 supplement, 20 ng/ml recombinant human epidermal growth factor (EGF; Sigma), 10 ng/ml recombinant human basic fibroblast growth factor (bFGF; R&D Systems). Approximately 5000 viable cells per ml was then seeded in an ultra-low adherent 60 mm plate and incubated at 37° C. and 5% CO2 for two weeks without disturbing the plates. After the mammospheres formed, fresh media with or without Adriamycin (5 μM), SNI-1 (2.5 or 5.0 μM), or a combination of these agents was added and the cells incubated for additional 48 h at 37° C. and 5% CO2. The mammospheres in the untreated and treated plates were photographed, and the cells were then dissociated to determine their viabilities by the MTT assay (Cheriyan et al. (2016) Oncotarget 7, 73370-73388).

Molecules are shown by their SMILES.

As for `N.N.[Cl][Pt][Cl]` [Cisplatin], the “p65/RelA activation and phosphorylation of NEMO” value in series [1] was “robust increase”. Further, in series [2], the “weight loss in animals” value is listed as 0.8-3.2%. In the series on MDR1, the “levels of drug efflux pump MDR1” value is listed as “robust increase”. Moreover, the “levels of TNFα, IL-8, and IL-1β in the media” value in series [3] is “robust increase”. In addition, the “serum levels of TNFα and IL-1β” value in the series with 4T1 TNBC tumors is given as “robustly stimulated”. In addition, the “phosphorylated p65/RelA in tumors (immuno-histochemistry)” value in the series with 4T1 TNBC tumors (mouse, in vivo) is recorded as “presence of phosphorylated p/65RelA”. Moreover, the “cleaved caspase-3 in tumors (immuno-histochemistry)” value with 4T1 TNBC tumors (versus untreated control animal) was “strong presence of cleaved caspase-3”.

Turning to `COc1cccc2c1C(=O)c1c(O)c3c(c(O)c1C2=O)C[C@@](O)(C(=O)CO)C[C@@H]3O[C@H]1C[C@H](N)[C@H](O)[C@H](C)O1` [Adriamycin], the “p65/RelA activation and phosphorylation of NEMO” value in series [1] is given as “robust increase”. In addition, in the series with MDA-MB-231 TNBC cells, the IC50 is around 3 µM. In addition, the “expression of cleaved RIPK1” value with cleaved RIPK1 is on record as “induced expression of cleaved RIPK1”. The inhibition at 5 µM in series [4] was around 30%. Also, the “levels of drug efflux pump MDR1” value in the series with MDR1 was “moderate increase”. The “levels of TNFα, IL-8, and IL-1β in the media” value in series [3] was “robust increase”. For the same compound, the “serum levels of TNFα and IL-1β” value with 4T1 TNBC tumors is “robustly stimulated”.

The IC50 is the midpoint of a concentration-inhibition curve. What is called inhibition is the drop in the measured response relative to a control, in per cent. A lower inhibition goes with a weak effect.
